This note sets out measurements from paper PMC10974052, “Synthesis, Computational Study, and In Vitro α-Glucosidase Inhibitory Action of 1,3,4-Thiadiazole Derivatives of 3-Aminopyridin-2(1H)-ones” (Pharmaceuticals, 2024).

Structures are written as SMILES.

Chain of α-glucosidase (P53341 whole entry): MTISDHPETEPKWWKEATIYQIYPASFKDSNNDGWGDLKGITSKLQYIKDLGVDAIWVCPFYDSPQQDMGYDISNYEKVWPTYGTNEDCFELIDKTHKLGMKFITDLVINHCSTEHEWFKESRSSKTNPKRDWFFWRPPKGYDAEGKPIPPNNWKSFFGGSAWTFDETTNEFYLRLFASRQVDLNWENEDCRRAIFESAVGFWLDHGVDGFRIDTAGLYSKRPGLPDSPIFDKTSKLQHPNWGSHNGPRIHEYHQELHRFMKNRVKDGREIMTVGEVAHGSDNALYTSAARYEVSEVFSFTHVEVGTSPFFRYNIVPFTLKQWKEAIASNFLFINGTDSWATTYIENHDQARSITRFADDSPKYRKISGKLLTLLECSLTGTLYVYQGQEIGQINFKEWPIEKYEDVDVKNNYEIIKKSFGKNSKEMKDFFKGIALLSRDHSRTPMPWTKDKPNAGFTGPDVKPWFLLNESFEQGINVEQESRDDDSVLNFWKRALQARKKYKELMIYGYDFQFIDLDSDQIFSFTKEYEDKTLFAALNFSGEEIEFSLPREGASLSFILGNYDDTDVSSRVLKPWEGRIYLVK

The first series has as its target α-glucosidase (Saccharomyces cerevisiae, UniProt P53341). The series can be described thus: In vitro α-glucosidase inhibition assay (p-NPG hydrolysis, 405 nm). It counts as biochemical. Details: inhibition: dose or concentration left out as unconfirmed. The settings on record: read-out: The Degree of Inhibition of α-Glucosidase Activity, tested compounds at a concentration of 15 mM (Table 1 title); mean ± standard error of the mean, triplicate. The protocol:
Antidiabetic activity was assessed by the degree of inhibition of α-glucosidase activity by the test substances.
The study of the degree of α-glucosidase activity inhibition by the test compounds was performed using a standard method with minor modifications.
Study of the degree of inhibition of α-glucosidase activity by test compounds [25].
The principle of the method is as follows: the α-glucosidase enzyme hydrolyzes 4-Nitrophenyl α-D-glucopyranoside to form a colorimetric product (405 nm), the concentration of which is proportional to the α-glucosidase activity. […] The resulting mixture was incubated for 15 min at +37 °C, then 200 μL of a solution of 4-Nitrophenyl α-D-glucopyranoside (p-Nitrophenyl α-D-glucopyranoside, P-NPG) (5 mM) was added, and then the mixture was incubated at +37 °C for 20 min. Then, the reaction was stopped by adding 500 μL of sodium carbonate (0.1 M). A solution of α-glucosidase (1 U/mL) was used as a blank. We used 200 μL of DMSO in triplicate as a negative control. […] At the same time, a negative control was set without addition of test compounds. All samples were studied in triplicate. Inhibitory activity was expressed as a percentage (%) according to the degree of inhibition of α-glucosidase in comparison with the negative control. It was calculated by the following formula:
Inhibitory activity (%) = (1 − As/Ac)∗100%, where As is the optical density of the test compound, and Ac is the optical density of control.
The IC50 was determined from the graph of enzyme activity changes depending on the sample concentration.
Statistical processing of the results was carried out using the “Excel 365 v2401” program. […] The α-amylase and α-glucosidase enzymes determine the extent to which glucose enters the bloodstream from the gastrointestinal tract. Inhibition of these enzymes can be useful for lowering postprandial glucose levels.
Turning to `Cc1cc(-c2ccccc2)c(NC(=O)c2nnc(-c3ccccc3C(=O)O)s2)c(=O)[nH]1` [9′b], the inhibition at 15000 µM was 95%.

The series is the same for the next values; noted with them: read-out: The Degree of Inhibition of α-Glucosidase Activity; mean ± standard error of the mean, triplicate.
As to `Cc1cc(C)c(NC(=O)c2nnc(CCC(=O)O)s2)c(=O)[nH]1` [5′a], the inhibition is 36.3 ± 4.8%.

For the compound `Cc1cc(-c2ccccc2)c(NC(=O)c2nnc(CCC(=O)O)s2)c(=O)[nH]1` [5′b], the inhibition stood at 72.4 ± 2.3%.

In the case of `Cc1cc(-c2cccs2)c(NC(=O)c2nnc(CCC(=O)O)s2)c(=O)[nH]1` [5′c], the inhibition worked out at 38.3 ± 2.4%.

`Cc1cc(C)c(NC(=O)c2nnc(CCCC(=O)O)s2)c(=O)[nH]1` [7′a]: the inhibition was 34.8 ± 4.2%.

For `Cc1cc(-c2ccccc2)c(NC(=O)c2nnc(CCCC(=O)O)s2)c(=O)[nH]1` [7′b], the inhibition came to 95 ± 0.2%.

For the compound `Cc1cc(-c2cccs2)c(NC(=O)c2nnc(CCCC(=O)O)s2)c(=O)[nH]1` [7′c], the inhibition is 93.9 ± 0.4%.

Take `Cc1cc(C)c(NC(=O)c2nnc(/C=C/C(=O)O)s2)c(=O)[nH]1` [8′a]: the inhibition is 14 ± 3%.

As to `Cc1cc(-c2ccccc2)c(NC(=O)c2nnc(/C=C/C(=O)O)s2)c(=O)[nH]1` [8′b], the inhibition is 68.2 ± 4.7%.

As to `Cc1cc(-c2cccs2)c(NC(=O)c2nnc(/C=C/C(=O)O)s2)c(=O)[nH]1` [8′c], the inhibition was found to be 8 ± 3%.

Regarding `Cc1cc(C)c(NC(=O)c2nnc(-c3ccccc3C(=O)O)s2)c(=O)[nH]1` [9′a], the inhibition amounted to 33.6 ± 6.1%.

As for `Cc1cc(-c2cccs2)c(NC(=O)c2nnc(-c3ccccc3C(=O)O)s2)c(=O)[nH]1` [9′c], the inhibition came out at 21 ± 2.2%.

The series is the same for the next values; noted with them: tested compounds at a concentration of 15 mM (Table 1 title); mean ± standard error of the mean, triplicate.
In the case of `C[C@H]1O[C@H](O[C@H]2[C@H](O)[C@@H](O)[C@@H](O[C@H]3[C@H](O)[C@@H](O)C(O)O[C@@H]3CO)O[C@@H]2CO)[C@H](O)[C@@H](O)[C@@H]1N[C@H]1C=C(CO)[C@@H](O)[C@H](O)[C@H]1O` (stereo partly shown) [Acarbose, reference compound], the “The Degree of Inhibition of α-Glucosidase Activity” value is 49.5 ± 1.8%.

Tested on in the next series: not given
Assay: not given
Details: not given
In general, melting point refers to the temperature of the solid-liquid transition. With `Cc1cc(C)c(NC(=O)c2nnc(CCCC(=O)O)s2)c(=O)[nH]1` [7a, 4-(5-((4,6-Dimethyl-2-oxo-1,2-dihydropyridin-3-yl)carbamoyl)-1,3,4-thiadiazol-2-yl)butanoic acid], the melting point lay in the range of 248 to 250 °C.

Compound `Cc1cc(-c2ccccc2)c(NC(=O)c2nnc(CCCC(=O)O)s2)c(=O)[nH]1` [7b, 4-(5-((6-Methyl-2-oxo-4-phenyl-1,2-dihydropyridin-3-yl)carbamoyl)-1,3,4-thiadiazol-2-yl)butanoic acid] registered a melting point of 243 to 246 °C.

`Cc1cc(-c2cccs2)c(NC(=O)c2nnc(CCCC(=O)O)s2)c(=O)[nH]1` [7c, 4-(5-((6-Methyl-2-oxo-4-(thiophen-2-yl)-1,2-dihydropyridin-3-yl)carbamoyl)-1,3,4-thiadiazol-2-yl)butanoic acid] displayed a melting point of 197 to 200 °C.

In the case of `Cc1cc(C)c(NC(=O)c2nnc(/C=C/C(=O)O)s2)c(=O)[nH]1` [8a, (E)-3-(5-((4,6-Dimethyl-2-oxo-1,2-dihydropyridin-3-yl)carbamoyl)-1,3,4-thiadiazol-2-yl)acrylic acid], the melting point was in the range of 261 to 263 °C.

In turn, `Cc1cc(-c2ccccc2)c(NC(=O)c2nnc(/C=C/C(=O)O)s2)c(=O)[nH]1` [8b, (E)-3-(5-((6-Methyl-2-oxo-4-phenyl-1,2-dihydropyridin-3-yl)carbamoyl)-1,3,4-thiadiazol-2-yl)acrylic acid] came in with a melting point of 199 to 202 °C.

For the compound `Cc1cc(-c2cccs2)c(NC(=O)c2nnc(/C=C/C(=O)O)s2)c(=O)[nH]1` [8c, (E)-3-(5-((6-Methyl-2-oxo-4-(thiophen-2-yl)-1,2-dihydropyridin-3-yl)carbamoyl)-1,3,4-thiadiazol-2-yl)acrylic acid], the melting point was 247 to 250 °C.

Turning to `Cc1cc(C)c(NC(=O)c2nnc(-c3ccccc3C(=O)O)s2)c(=O)[nH]1` [9a, 2-(5-((4,6-Dimethyl-2-oxo-1,2-dihydropyridin-3-yl)carbamoyl)-1,3,4-thiadiazol-2-yl)benzoic acid], the melting point was in the range of 315 to 318 °C.

The compound `Cc1cc(-c2ccccc2)c(NC(=O)c2nnc(-c3ccccc3C(=O)O)s2)c(=O)[nH]1` [9b, 2-(5-((6-Methyl-2-oxo-4-phenyl-1,2-dihydropyridin-3-yl)carbamoyl)-1,3,4-thiadiazol-2-yl)benzoic acid] had a melting point of 176 to 180 °C.

In the case of `Cc1cc(-c2cccs2)c(NC(=O)c2nnc(-c3ccccc3C(=O)O)s2)c(=O)[nH]1` [9c, 2-(5-((6-Methyl-2-oxo-4-(thiophen-2-yl)-1,2-dihydropyridin-3-yl)carbamoyl)-1,3,4-thiadiazol-2-yl)benzoic acid], the melting point was in the range of 275 to 277 °C.
